In patent US10945992B1, “Dosage forms of rofecoxib and related methods” (Tremeau Pharmaceuticals, Inc., priority 2019, dated 2021):
Like-named read-outs stand apart in the source and are kept apart here.

Columns and labels:
Solubility of rofecoxib = type: physicochemical
Experimental: In some embodiments, rofecoxib is a white to off-white to light yellow powder. […] The 50 mg tablets may also contain red ferric oxide. […] Added as preservatives are sodium methylparaben about 0.13% and sodium propylparaben about 0.02%.
https://www.ccdc.cam.ac.uk/structures/Search?Compound=Rofecoxib&DatabaseToSearch=Published). […] Rofecoxib has no ionizable moieties and cannot form salts; the solubility of rofecoxib cannot be increased by changing pH. Therefore, in some embodiments, rofecoxib is micronized in the final step of the manufacturing process in order to increase dissolution rate. Description of Manufacturing Process and Process Controls for Rofecoxib Tablets

[1] = LC-MS/MS method validation: stability of rofecoxib; type: physicochemical, human
Excerpt: In order to support clinical studies with TRM-201 (rofecoxib), a method was developed for the determination of rofecoxib in human plasma by LC-MS/MS. This method was validated in accordance with the FDA Good Laboratory Practice Regulations (GLP) as set forth in Title 21 of the U S. Code of Federal Regulations Part 58 as well as FDA Guidance for Industry: Bioanalytical Method Validation, May 2018.

In the case of `CS(=O)(=O)c1ccc(C2=C(c3ccccc3)C(=O)OC2)cc1` [TRM-201, 4-[4-(methylsulfonyl)phenyl]-3-phenyl-2(5H)-furanone], the solubility (Solubility of rofecoxib; acetone) is reported as “sparingly soluble”, the solubility (Solubility of rofecoxib; ethanol) is reported as “very slightly soluble” and the solubility (Solubility of rofecoxib; isopropyl acetate) is reported as “slightly soluble”. The solubility (Solubility of rofecoxib; methanol) was “slightly soluble”, the solubility (Solubility of rofecoxib; octanol) was “practically insoluble” and the solubility (Solubility of rofecoxib; water, listed as Rofecoxib) was “practically insoluble”. For the same molecule, the solubility (Solubility of rofecoxib; water, listed as rofecoxib) was “insoluble”, the solubility (Solubility of rofecoxib; water, read-out: solubility in water) was < 100 µg/mL and the “Processed Sample Stability” value ([1]; at 4° C.) was 174 Hours at 4 °C. For the same molecule, the “Stock Solution Stability in Dimethyl Sulfoxide” value ([1]; at Ambient Temperature) was 17 Hours at Ambient Temperature, the “Benchtop Stability in Plasma” value ([1]; at Ambient Temperature, human plasma) was 26 Hours at Ambient Temperature and the “Stock Solution Stability in Dimethyl Sulfoxide” value ([1]; at −20° C.) was 202 Days at −20 °C. For the same molecule, the “Freeze/Thaw Stability in Plasma” value ([1]; at −20° C. and −70° C.) was 5 Cycles at −20 °C and −70 °C, the “Long-term Storage Stability in Plasma” value ([1]; at −20° C. and −70° C.) was 184 Days at −20 °C and −70 °C and the “Benchtop Stability in Whole Blood” value ([1]; in an Ice Bath when Centrifuged at 4° C. or Ambient Temperature) was 2 Hours in an Ice Bath when.
